Read-outs that look alike come from different tables or passages of the source.
Key:
[1] = in vitro; settings: human
[2] = test system: MV-Luc; test: microbe, parasite or virus in culture; type: cell-based, measles virus (MV); settings: for IC50: Measles morbillivirus, HEK-293T, 24 h, read-out: IC50 (μM), inhibition of MV-Luc; for antiviral potency relative to DD363: MV-Luc IC50, fold higher than for DD363
[3] = test system: ISRE-luciferase reporter gene; test: ISRE-luciferase induction in STING-37 reporter cells; settings: STING-37 cells, 24 h, increasing doses
[4] = test system: DHODH; set-up: method as in PMID 20183850; settings: read-out: IC50 on the recombinant enzyme; cited from earlier work
[5] = test system: MV-Luc; test: Complementation of MV-Luc inhibition with uridine, DHO or orotate; settings: 24 h
[6] = test system: IFN biological activity; test: IFN biological activity of culture supernatants on fresh STING-37 cells; settings: no ssRNA, supernatants at 48 h
[7] = test system: IFN-α4; test: RT-qPCR gene expression in STING-37 cells: IFN-α4; type: cell-based, human; settings: 30 μM, 24 h, DMSO None = 1
Method: (§1) To further document the consequences of DD778 treatment on the cellular response to ssRNA, mRNA levels for RIG-I, MDA5, oligoadenylate synthase-like protein (OASL), IFN-α4, IFN-β, IFN-λ1, and IFN-λ2/3 were determined by reverse transcription-quantitative PCR (RT-qPCR). […] Furthermore, the effects of DD778 on the expression of these genes could be reversed by the addition of uridine in culture medium. […] In parallel, we measured in culture supernatants the concentrations of IFN-β, IFN-λ1, IFN-λ2/3, and interferon-inducible protein of 10 kDa (IP-10), which is a well-characterized IFN-inducible chemokine (Fig. 7C). […] This illustrates an original mechanism by which cells can communicate with neighbors on their metabolic status.
(§2) Upper images correspond to representative experiments.

[8] = test system: CHIKV expressing Renilla luciferase; test: microbe, parasite or virus in culture; type: cell-based; settings: Chikungunya virus, HEK-293T, 24 h, read-out: IC50, CHIKV Renilla luciferase
[9] = test system: OASL; test: RT-qPCR gene expression in STING-37 cells: OASL; type: cell-based, human; settings: 30 μM, 24 h, DMSO None = 1
Method: as §1, §2

[10] = test system: RIG-I; test: RT-qPCR gene expression in STING-37 cells: RIG-I; type: cell-based, human; settings: 30 μM, 24 h, DMSO None = 1
Method: as §1, §2

[11] = test system: IFN-λ2/3; test: RT-qPCR gene expression in STING-37 cells: IFN-λ2/3; type: cell-based, human; settings: 30 μM, 24 h, DMSO None = 1
Method: as §1, §2

[12] = test system: de novo pyrimidine biosynthesis; test: Intracellular nucleoside/nucleotide and UDP-sugar levels by HPLC; type: cell-based, human
[13] = test system: IFN-β; test: RT-qPCR gene expression in STING-37 cells: IFN-β; type: cell-based, human; settings: 30 μM, 24 h, DMSO None = 1
Method: as §1, §2

[14] = test system: IFN-β, IFN-λ1, IFN-λ2/3, and IP-10; test: Cytokines in culture supernatants, LEGENDplex
[15] = test system: MDA5; test: RT-qPCR gene expression in STING-37 cells: MDA5; type: cell-based, human; settings: 30 μM, 24 h, DMSO None = 1
Method: as §1, §2

[16] = test system: IFN-λ1; test: RT-qPCR gene expression in STING-37 cells: IFN-λ1; type: cell-based, human; settings: 30 μM, 24 h, DMSO None = 1
Method: as §1, §2

[17] = test system: MDA5; test: Western blotting of MDA5 in STING-37 cells
[18] = test system: RIG-I; test: Western blotting of RIG-I in STING-37 cells
[19] = test system: ISRE-luciferase reporter gene; test: ISRE-luciferase response to MV infection in STING-37 cells; settings: 30 μM added 9 h after infection, read 16 h later
[20] = test system: MV-Luc; set-up: method as in PMID 25558988; settings: HEK-293T cells; previously reported ref 9; read-out: IC50, inhibition of MV-Luc; cited from earlier work
[21] = MV MOI 2, 30 μM added at 9 h, 39 h more

SMILES: O=c1oc2ccc(Cl)cc2c2c1C(c1c[nH]c3ccccc13)CO2 (centres unmarked) [JP46]
- CC50 at 24 h [1]: 50 ± 8 µM
- decrease of antiviral potency relative to DD771 ([2]; MV-Luc IC50): 9 fold
- IC50 [2]: 16 ± 4 µM

SMILES: Cn1cc(C2c3c(c4cc(Cl)ccc4oc3=O)OC2[N+](=O)[O-])c2ccccc21 (centres unmarked) [JP10]
- CC50 at 24 h [1]: > 50 µM
- IC50 [2]: > 50 µM

SMILES: O=c1oc2ccccc2c2c1C(c1cccc(Cl)c1)C([N+](=O)[O-])O2 (centres unmarked) [DD311]
- CC50 at 24 h [1]: > 50 µM
- IC50 [2]: 47 ± 4 µM

SMILES: O=c1oc2ccccc2c2c1C(c1c[nH]c3ccccc13)CO2 (centres unmarked) [JP42]
- CC50 at 24 h [1]: > 50 µM
- IC50 [2]: 16 ± 3 µM

SMILES: O=c1oc2ccccc2c(O)c1C(C[N+](=O)[O-])c1c[nH]c2ccccc12 (centres unmarked) [JP39]
- CC50 [1]: > 50 µM
- IC50 [2]: > 50 µM

SMILES: O=C1CCCc2occ(-c3cccc(Cl)c3)c21 [DD264, reference compound]
- CC50 at 24 h [1]: > 80 µM
- IC50 [2]: 15 ± 2 µM

SMILES: O=c1oc2ccc(Cl)cc2c2c1C(c1c[nH]c3ccc(Br)cc13)C([N+](=O)[O-])O2 (centres unmarked) [DD783]
- CC50 at 24 h [1]: > 50 µM
- IC50 [2]: 42 ± 7 µM

SMILES: Cc1cc2oc(=O)c3c(c2cc1C)OC([N+](=O)[O-])C3c1c[nH]c2ccccc12 (centres unmarked) [DD775]
- CC50 at 24 h [1]: > 50 µM
- IC50 [2]: 1.7 ± 0.4 µM

SMILES: O=c1oc2ccc(Br)cc2c2c1C(c1c[nH]c3ccccc13)C([N+](=O)[O-])O2 (centres unmarked) [JP52]
- CC50 at 24 h [1]: > 50 µM
- antiviral potency relative to DD363 [2]: 2- to 9 fold
- IC50 [2]: 1.2 ± 0.2 µM

SMILES: O=C1C(=O)c2ccccc2C2=C1C(c1c[nH]c3ccccc13)C([N+](=O)[O-])O2 (centres unmarked) [DD785]
- CC50 at 24 h [1]: > 50 µM
- IC50 [2]: > 50 µM

SMILES: O=c1oc2ccc(Cl)cc2c2c1C(c1c[nH]c3ccccc13)C([N+](=O)[O-])O2 (centres unmarked) [DD771]
- CC50 at 24 h [1]: > 50 µM
- antiviral potency relative to DD363 [2]: 2- to 9 fold
- IC50 [2]: 1.7 ± 0.4 µM

SMILES: O=c1oc2ccccc2c(O)c1Cc1c(O)c2ccccc2oc1=O [Dicoumarol, dicoumarol, reference compound]
- IC50 [2]: 12 ± 0.3 µM
- induction of the ISRE-luciferase gene (compound alone) [3]: induced
- IC50 [4]: 6.6 µM
- antiviral effect when culture medium is supplemented with uridine ([5]; uridine 130 μM): fully reversed

SMILES: CCc1ccc2oc(=O)c3c(c2c1)OC([N+](=O)[O-])C3c1c[nH]c2ccccc12 (centres unmarked) [JP49]
- CC50 at 24 h [1]: > 50 µM
- antiviral potency relative to DD363 [2]: 2- to 9 fold
- IC50 [2]: 5.3 ± 1.1 µM

SMILES: O=c1oc2ccc(F)cc2c2c1C(c1c[nH]c3ccccc13)C([N+](=O)[O-])O2 (centres unmarked) [DD776]
- CC50 at 24 h [1]: > 50 µM
- antiviral potency relative to DD363 [2]: 2- to 9 fold
- IC50 [2]: 3.8 ± 0.8 µM

SMILES: Cn1c(=O)c2c(c3ccccc31)OC([N+](=O)[O-])C2c1c[nH]c2ccccc12 (centres unmarked) [DD787]
- CC50 at 24 h [1]: > 50 µM
- IC50 [2]: 16 ± 3 µM

SMILES: Cc1ccc2oc(=O)c3c(c2c1)OC([N+](=O)[O-])C3c1c[nH]c2ccccc12 (centres unmarked) [DD778]
- IFN activity in supernatants of cells treated with compound alone [6]: did not show any IFN activity
- IFN-α4 expression level (RT-qPCR) ([7]; ssRNA (60 ng/well)): 1.3±0.7
- IFN-α4 expression level (RT-qPCR) ([7]; ssRNA (120 ng/well)): 1.4±0.6
- IFN-α4 expression level (RT-qPCR) ([7]; ssRNA: None): 1.3±0.7
- IC50 [8]: 1.4 ± 0.2 µM
- OASL expression level (RT-qPCR) ([9]; ssRNA (60 ng/well)): 17±3
- OASL expression level (RT-qPCR) ([9]; ssRNA (120 ng/well)): 111±21
- OASL expression level (RT-qPCR) ([9]; ssRNA: None): 3±2
- RIG-I expression level (RT-qPCR) ([10]; ssRNA (60 ng/well)): 12±5
- RIG-I expression level (RT-qPCR) ([10]; ssRNA (120 ng/well)): 57±9
- RIG-I expression level (RT-qPCR) ([10]; ssRNA: None): 1.3±0.4
- IFN-λ2/3 expression level (RT-qPCR) ([11]; ssRNA (60 ng/well)): 7±1
- IFN-λ2/3 expression level (RT-qPCR) ([11]; ssRNA (120 ng/well)): 55±12
- IFN-λ2/3 expression level (RT-qPCR) ([11]; ssRNA: None): 1.4±0.7
- intracellular UDP-Gal level ([12]; HEK-293T cells treated 24 h): collapsed
- intracellular UDP-GalNac level ([12]; HEK-293T cells treated 24 h): maintained at high levels
- purine levels (A and G) ([12]; HEK-293T cells treated 24 h): unaffected
- uridine (U) and cytidine (C) levels ([12]; HEK-293T cells treated 24 h): collapsed
- IFN-β expression level (RT-qPCR) ([13]; ssRNA (60 ng/well)): 4±3
- IFN-β expression level (RT-qPCR) ([13]; ssRNA (120 ng/well)): 17±5
- IFN-β expression level (RT-qPCR) ([13]; ssRNA: None): 1.5±0.8
- expression of IFN-β, IFN-λ1, IFN-λ2/3, and IP-10 in supernatants, ssRNA-stimulated cells ([14]; 30 μM, 120 ng ssRNA, 48 h): increased the expression
- IFN-β expression in supernatants, MV-infected cells [14, 21]: not statistically enhanced
- expression of IFN-λ1, IFN-λ2/3, and IP-10 in supernatants, MV-infected cells [14, 21]: efficiently increased
- MDA5 expression level (RT-qPCR) ([15]; ssRNA (60 ng/well)): 5±1
- MDA5 expression level (RT-qPCR) ([15]; ssRNA (120 ng/well)): 23±2
- MDA5 expression level (RT-qPCR) ([15]; ssRNA: None): 1.1±0.1
- IFN-λ1 expression level (RT-qPCR) ([16]; ssRNA (60 ng/well)): 14±3
- IFN-λ1 expression level (RT-qPCR) ([16]; ssRNA (120 ng/well)): 130±10
- IFN-λ1 expression level (RT-qPCR) ([16]; ssRNA: None): 1.9±0.6
- MDA5 protein expression, ssRNA-transfected cells ([17]; 30 μM, 48 h): promoted the expression
- effects on MDA5 protein expression, MV-infected cells [17, 21]: limited
- CC50 at 24 h [1]: 207 ± 20 µM
- antiviral potency relative to DD363 [2]: 2- to 9 fold
- IC50 [2]: 2.9 ± 0.3 µM
- induction of the ISRE-luciferase gene (compound alone) [3]: induced
- RIG-I protein expression, ssRNA-transfected cells ([18]; 30 μM, 48 h): promoted the expression
- RIG-I protein expression, MV-infected cells [18, 21]: boosted
- effect of DHO on viral replication in treated cells ([5]; DD778 10 μM, DHO 3 mM): no effect
- effect of uridine and orotate on viral replication in treated cells ([5]; DD778 10 μM, uridine 130 μM, orotate 3 mM): restore viral replication
- cellular response to MV infection (ISRE-luciferase) [19]: efficiently boosted

SMILES: Cc1c(-c2ccc(-c3ccccc3F)cc2)nc2ccc(F)cc2c1C(=O)O [Brequinar, brequinar, reference compound]
- IC50 [20]: 0.04 µM
- inhibition of de novo pyrimidine biosynthesis ([12]; submicromolar concentrations, 24 h): inhibited
- induction of the ISRE-luciferase gene (compound alone) [3]: induced

SMILES: Cc1[nH]c2ccccc2c1C1c2c(c3cc(Cl)ccc3oc2=O)OC1[N+](=O)[O-] (centres unmarked) [JP25]
- CC50 at 24 h [1]: > 50 µM
- IC50 [2]: 47 ± 7 µM

SMILES: Cc1cc2c(c(=O)o1)C(c1c[nH]c3ccccc13)C([N+](=O)[O-])O2 (centres unmarked) [DD786]
- CC50 at 24 h [1]: > 50 µM
- IC50 [2]: > 50 µM
- induction of the ISRE-luciferase gene (compound alone) [3]: unable to do so

SMILES: Cc1ccc2oc(=O)c3c(c2c1)OC([N+](=O)[O-])C3c1c[nH]c2ccc(Br)cc12 (centres unmarked) [DD784]
- CC50 at 24 h [1]: > 50 µM
- IC50 [2]: 40 ± 7 µM

SMILES: C/C(O)=C(\C#N)C(=O)Nc1ccc(C(F)(F)F)cc1 [Teriflunomide, teriflunomide]
- IC50 [20]: 5 µM
